ChEMBL document CHEMBL4177677, “Relevance of Half-Life in Drug Design” (J Med Chem, 2018)
Blank lines part the entries; values can stand above or below the compound they belong to.

What was measured:
[1] = Inhibition of human calcium channel
Homo sapiens [2] = organism: Homo sapiens; test: Unbound concentration in human at 5 to 10 mg, qd; type: ADME, organism-based; conditions: in vivo
[3] = Half life in human; type: ADME, organism-based; conditions: in vivo
[4] = Drug excretion in human kidney; conditions: urine
[5] = Terminal half life in human; type: ADME, organism-based; conditions: in vivo, read-out: beta t1/2
[6] = Half life in human at 10 mg, tid; conditions: in vivo
Homo sapiens [7] = organism: Homo sapiens; test: Unbound concentration in human at 10 mg, tid; conditions: in vivo
[8] = Terminal half life in human at 0.1 mg/kg, iv; type: ADME, organism-based; conditions: in vivo, read-out: beta t1/2 (converted)

SMILES: CCOC(=O)C1=C(COCCN)NC(C)=C(C(=O)OC)C1c1ccccc1Cl (stereo not given) [AMLODIPINE]
- IC50 [1]: 2 nM
- Drug uptake(free) (Homo sapiens [2]): 2 nM

SMILES: NCCCC(O)(P(=O)(O)O)P(=O)(O)O [ALENDRONIC ACID]
- dose excreted [4]: 20 to 80%

SMILES: COC(=O)C1=C(C)NC(C)=C(C(=O)OC)C1c1ccccc1[N+](=O)[O-] [NIFEDIPINE]
- IC50 [1]: 4 nM
- half-life [6]: 2 h
- Drug uptake(free) (Homo sapiens [7]): 6 nM

SMILES: C[C@@H]1CCN(C(=O)CC#N)C[C@@H]1N(C)c1ncnc2[nH]ccc12 [TOFACITINIB]
- half-life [3]: 3 h

SMILES: NS(=O)(=O)N1CCN(C2CN(CC[C@]3(c4ccc(Cl)c(Cl)c4)CCC(=O)N(CC4CC4)C3)C2)CC1
- half-life [8]: 28 h

Next, values leading:

- half-life [3]: 60 h
SMILES: COc1cc(F)c(C(C)C)cc1-c1ccc(C(F)(F)F)cc1CN1C(=O)O[C@H](c2cc(C(F)(F)F)cc(C(F)(F)F)c2)[C@@H]1C [ANACETRAPIB]

- half-life [5]: 19 to 26 h
SMILES: CC(C(=O)O)c1ccc2oc(-c3ccc(Cl)cc3)nc2c1 (stereo not given) [BENOXAPROFEN]
